From patent US12622899B2 (PureTech LYT 100, Inc., priority 2018, dated 2026)

Experiments:
[1] = test system: patients with COVID-19 respiratory disease; assay: Phase 2 trial of LYT-100 in post-acute COVID-19 respiratory disease: tolerability; type: in vivo, human; details: COVID-19 study
Procedure: An initial dosage of 500 mg BID was given the first 3 days of dosing, followed by 750 mg BID thereafter.

[2] = test system: rat BLM induced lung fibrosis model; details: in vivo, 400 mg/kg
Procedure: For Groups 4, 5, 6, and 7, bleomycin and vehicle dosing were conducted as indicated in Table 28 (0.45 mg/kg, at 1696 IU/mg of Bleomycin or saline on Day 1, 2, 3, 6 and 7).

[3] = test system: patients with Idiopathic Pulmonary Fibrosis (IPF); assay: IPF trial Part A: clinical laboratory parameters, liver; type: in vivo, human
CYP2D6 = molecular target: T1, CYP2D6 (Homo sapiens, UniProt P10635); assay: In vitro stability with recombinant human CYP2D6; type: in vitro ADME; details: recombinant human isozyme; read-out: t1/2 following incubation with CYP2D6 (converted)
T1 construct: host or cells: heterologous cell systems (not specified)
T1 sequence (P10635 whole entry): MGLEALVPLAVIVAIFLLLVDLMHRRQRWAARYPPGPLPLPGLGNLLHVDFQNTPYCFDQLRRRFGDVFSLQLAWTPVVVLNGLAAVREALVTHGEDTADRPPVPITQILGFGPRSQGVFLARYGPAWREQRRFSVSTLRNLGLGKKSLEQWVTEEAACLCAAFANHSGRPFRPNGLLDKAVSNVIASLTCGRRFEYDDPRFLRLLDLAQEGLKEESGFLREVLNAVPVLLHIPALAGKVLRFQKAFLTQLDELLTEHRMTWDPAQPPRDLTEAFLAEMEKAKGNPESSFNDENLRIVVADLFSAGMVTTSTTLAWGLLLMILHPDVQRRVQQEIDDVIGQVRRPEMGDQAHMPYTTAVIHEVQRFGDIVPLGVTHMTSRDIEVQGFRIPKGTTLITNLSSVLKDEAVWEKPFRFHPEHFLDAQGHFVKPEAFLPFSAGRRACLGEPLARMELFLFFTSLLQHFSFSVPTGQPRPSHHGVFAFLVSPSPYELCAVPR
Procedure: The half-life (t½) of each test article was determined.

[4] = test system: patients with Idiopathic Pulmonary Fibrosis (IPF); assay: IPF trial Part B (open label long-term extension): efficacy, safety, TEAEs; type: in vivo, human
Excerpt: Part B (long-term extension) will evaluate the tolerability and long-term safety of LYT-100 in patients who complete the Double-blind Treatment Period. Part B has two periods. […] Patients completing Part B Period 1 will continue maintenance treatment in Part B Period 2 until the study ends. Part B Period 2 will continue at least until all patients who enter Part B Period 1 have the opportunity to complete Part B Period 1. Tolerability and safety during both Part B Period 1 and Part B Period 2 will be monitored by regularly scheduled review of adverse events (AEs), patient reported symptoms, concomitant medications, clinical laboratory findings, physical examinations, electrocardiograms (ECGs), and vital signs. Efficacy will be assessed by evaluation of pulmonary function and monitored by spirometry at regularly scheduled clinic visits. A graphical illustration of an embodiment of the trial design is provided as FIG. 24C.
At the start of Part B, all patients received LYT-100 oral tablets. Patients were titrated onto their assigned doses.
The proportion of patients with prior exposure to nintedanib was limited to 50%.
One hundred and seventy (170) patients (greater than 90%) enrolled in the Open Label Extension (Part B) of the study.

[5] = Study LYT-100-2021-103 Part 3 (Example 2): PK of LYT-100 550 mg TID then 824 mg TID; type: in vivo, human
Procedure: Subjects provided blood samples prior to treatment, i.e., Day −1 or Day 1, for the determination of CYP1A2, CYP2C9, CYP2C19, and CYP2D6 genotype to support exploratory PK analyses. Subjects were required to provide consent for genotyping. Blood samples for PK were collected at specified times, as follows: • Day 1:0 (pre-AM dose) • Day 2: no sampling • Day 3:0 (pre-AM dose), and 1, 2, 3, 4, 6 (pre-mid-day dose), 7, 8, 9, 10, 12 (pre-PM dose), 13, 14, 15, 16, and 17 hours post-AM dose • Day 4:0 (pre-AM dose) • Day 5: no sampling • Day 6:0 (pre-AM dose), and 1, 2, 3, 4, 6 (pre-mid-day dose), 7, 8, 9, 10, 12 (pre-PM dose), 13, 14, 15, 16, and 17 hours post-AM dose • Day 7:0 (same time as Day 6 pre-AM dose, discharge)
Data was obtained for thirty subjects. Eight subjects had all values reported as below level of quantitation (BLQ; assumed to be 6 placebo subjects plus 2 active subjects with Day 1 pre-dose samples only). One additional subject was excluded due to a large number of BLQ samples on both Days 3-4 and 6-7. Accordingly, twenty-one subjects had sufficient PK data available to calculate PK parameters at the lower dose (550 mg TID on Days 3-4). Three subjects only had data for Days 3-4, and therefore had missing PK parameters for the higher dose (824 mg TID on Days 6-7).

healthy older adults = assay: Study LYT-100-2021-103 Part 3 (Example 2): safety and tolerability vs placebo; details: for Abdominal Pain/Discomfort/Distension, adverse events / Diarrhea, adverse events / Dizziness, adverse events / Dyspepsia, adverse events / GI Disorders, adverse events / Headache, adverse events / Nausea, adverse events / Nervous System Disorders, adverse events / Vomiting, adverse events: fed, N=13
Procedure: Only subjects who met all the applicable inclusion and none of the applicable exclusion criteria were randomized.
Safety and tolerability were assessed by monitoring AEs, physical examination, vital signs, 12-lead ECGs, clinical laboratory values (hematology panel, multiphasic chemistry panel and urinalysis), and review of concomitant treatments/medication use.

[6] = LYT-100 500 mg BID 3 days then 750 mg BID
[7] = Part A LYT-100 → Part B LYT-100 (N = 81)
[8] = Part A Pirfenidone → Part B LYT-100 (N = 39)
[9] = Part A Placebo → Part B LYT-100 (N = 50)
[10] = Part 3 safety population, LYT-100 550 mg TID Days 1-3 then 824 mg TID Days 4-6, N=24

[2H]C([2H])([2H])c1ccc(=O)n(-c2ccccc2)c1 [LYT-100, 5-(methyl-d3)-1-phenylpyridin-2-(1H)-one]
drug-related serious adverse events or deaths [1]: no drug-related serious adverse events (SAEs) or deaths
discontinuation rate due to AEs at least possibly related [1, 6]: 8.6%
dizziness, AE at least possibly related, incidence [1, 6]: 3.3%
fatigue, AE at least possibly related, incidence [1, 6]: 2.2%
headache, AE at least possibly related, incidence [1, 6]: 4.3%
nausea, AE at least possibly related, incidence [1, 6]: 8.7%
rash, AE at least possibly related, incidence [1, 6]: 3.3%
Dyspepsia, treatment emergent AE, events ([1]; LYT-100 750 mg BID): 6 Events
Dyspepsia, treatment emergent AE, subjects ([1]; LYT-100 750 mg BID): 6 (6.5) N (%)
Headache, treatment emergent AE, events ([1]; LYT-100 750 mg BID): 5 Events
Headache, treatment emergent AE, subjects ([1]; LYT-100 750 mg BID): 5 (5.4) N (%)
Increase in Fibrin D Dimer, treatment emergent AE, events ([1]; LYT-100 750 mg BID): 6 Events
Increase in Fibrin D Dimer, treatment emergent AE, subjects ([1]; LYT-100 750 mg BID): 5 (5.4) N (%)
Nasopharyngitis, treatment emergent AE, events ([1]; LYT-100 750 mg BID): 7 Events
Nasopharyngitis, treatment emergent AE, subjects ([1]; LYT-100 750 mg BID): 6 (6.5) N (%)
Nausea, treatment emergent AE, events ([1]; LYT-100 750 mg BID): 10 Events
Nausea, treatment emergent AE, subjects ([1]; LYT-100 750 mg BID): 8 (8.7) N (%)
Upper abdominal pain, treatment emergent AE, events ([1]; LYT-100 750 mg BID): 6 Events
Upper abdominal pain, treatment emergent AE, subjects ([1]; LYT-100 750 mg BID): 5 (5.4) N (%)
tolerability [2]: well tolerated
liver enzyme elevations, drug-induced liver injury ([3]; IPF Part A): no instances of drug-induced liver injury or Hy's Law
Alanine Aminotransferase (U/L) at Worst Post-Baseline, 3-5 ULN ([3]; TID Pooled (N = 129), N1 120): 2 (1.7) n (%)
Alanine Aminotransferase (U/L) at Worst Post-Baseline, 5-8 ULN ([3]; TID Pooled (N = 129), N1 120): 1 n (%)
Alanine Aminotransferase (U/L) at Worst Post-Baseline, >8 ULN ([3]; TID Pooled (N = 129), N1 120): 2 n (%)
Alanine Aminotransferase (U/L) at Worst Post-Baseline, Total (>3 ULN) ([3]; TID Pooled (N = 129), N1 120): 5 (4.2) n (%)
Alanine Aminotransferase or Aspartate Aminotransferase (U/L) at Worst Post-Baseline, 3-5 ULN ([3]; TID Pooled (N = 129), N1 120): 2 (1.7) n (%)
Alanine Aminotransferase or Aspartate Aminotransferase (U/L) at Worst Post-Baseline, 5-8 ULN ([3]; TID Pooled (N = 129), N1 120): 1 n (%)
Alanine Aminotransferase or Aspartate Aminotransferase (U/L) at Worst Post-Baseline, >8 ULN ([3]; TID Pooled (N = 129), N1 120): 2 n (%)
Alanine Aminotransferase or Aspartate Aminotransferase (U/L) at Worst Post-Baseline, Total (>3 ULN) ([3]; TID Pooled (N = 129), N1 120): 5 (4.2) n (%)
Aspartate Aminotransferase (U/L) at Worst Post-Baseline, 3-5 ULN ([3]; TID Pooled (N = 129), N1 120): 2 (1.7) n (%)
Aspartate Aminotransferase (U/L) at Worst Post-Baseline, 5-8 ULN ([3]; TID Pooled (N = 129), N1 120): 0 n (%)
Aspartate Aminotransferase (U/L) at Worst Post-Baseline, >8 ULN ([3]; TID Pooled (N = 129), N1 120): 2 n (%)
Aspartate Aminotransferase (U/L) at Worst Post-Baseline, Total (>3 ULN) ([3]; TID Pooled (N = 129), N1 120): 4 (3.3) n (%)
half-life (CYP2D6): 2.72 h
response in Open Label Extension ([4]; IPF Part B, ongoing, LYT-100 825 mg TID (FIG. 49)): durable response
TEAE Abdominal Pain [4, 7]: 2 (2.5) n (%)
TEAE Diarrhea [4, 7]: 2 (2.5) n (%)
TEAE Dyspepsia [4, 7]: 7 (8.6) n (%)
TEAE Nausea [4, 7]: 5 (6.2) n (%)
TEAE SOC Gastrointestinal disorders [4, 7]: 17 (21.0) n (%)
TEAE Vomiting [4, 7]: 2 (2.5) n (%)
TEAE Abdominal Pain [4, 8]: 1 (2.6) n (%)
TEAE Diarrhea [4, 8]: 1 (2.6) n (%)
TEAE Dyspepsia [4, 8]: 0 n (%)
TEAE Nausea [4, 8]: 2 (5.1) n (%)
TEAE SOC Gastrointestinal disorders [4, 8]: 5 (12.8) n (%)
TEAE Vomiting [4, 8]: 0 n (%)
TEAE Abdominal Pain [4, 9]: 2 (4.0) n (%)
TEAE Diarrhea [4, 9]: 2 (4.0) n (%)
TEAE Dyspepsia [4, 9]: 7 (14.0) n (%)
TEAE Nausea [4, 9]: 7 (14.0) n (%)
TEAE SOC Gastrointestinal disorders [4, 9]: 18 (36.0) n (%)
TEAE Vomiting [4, 9]: 3 (6.0) n (%)
TEAE Abdominal Pain ([4]; Part B Subtotal (N = 170)): 5 (2.9) n (%)
TEAE Diarrhea ([4]; Part B Subtotal (N = 170)): 5 (2.9) n (%)
TEAE Dyspepsia ([4]; Part B Subtotal (N = 170)): 14 (8.2) n (%)
TEAE Nausea ([4]; Part B Subtotal (N = 170)): 14 (8.2) n (%)
TEAE SOC Gastrointestinal disorders ([4]; Part B Subtotal (N = 170)): 40 (23.5) n (%)
TEAE Vomiting ([4]; Part B Subtotal (N = 170)): 5 (2.9) n (%)
Cmax, PK Parent ([5]; Healthy Older Part 3, LYT-100 824 mg TID, fed, N=13, mean (SD)): 13.7 (5.1) mcg/mL
AUC, % higher compared to historic pirfenidone PK values ([5]; LYT-100 824 mg TID): approximately 25%
exposure equivalent, % of 801 TID pirfenidone ([5]; LYT-100 825 mg TID): 120-150%
Cmax, % higher than with pirfenidone ([5]; Part 3, LYT-100 824 mg TID): 17%
deaths or SAEs (healthy older adults; Part 3): No deaths or SAEs
Abdominal Pain/Discomfort/Distension, adverse events (healthy older adults; Part 3, LYT-100 550 mg TID): 0 n (%)
Diarrhea, adverse events (healthy older adults; Part 3, LYT-100 550 mg TID): 1 (4.2) n (%)
Dizziness, adverse events (healthy older adults; Part 3, LYT-100 550 mg TID): 1 (4.2) n (%)
Dyspepsia, adverse events (healthy older adults; Part 3, LYT-100 550 mg TID): 1 (4.2) n (%)
GI Disorders, adverse events (healthy older adults; Part 3, LYT-100 550 mg TID): 2 (8.3) n (%)
Headache, adverse events (healthy older adults; Part 3, LYT-100 550 mg TID): 3 (12.5) n (%)
Nausea, adverse events (healthy older adults; Part 3, LYT-100 550 mg TID): 0 n (%)
Nervous System Disorders, adverse events (healthy older adults; Part 3, LYT-100 550 mg TID): 3 (12.5) n (%)
Vomiting, adverse events (healthy older adults; Part 3, LYT-100 550 mg TID): 0 n (%)
tolerability (healthy older adults; Part 3, LYT-100 824 mg TID, 3 treatment days): well tolerated
Abdominal Pain/Discomfort/Distension, adverse events (healthy older adults; Part 3, LYT-100 824 mg TID): 0 n (%)
Diarrhea, adverse events (healthy older adults; Part 3, LYT-100 824 mg TID): 0 n (%)
Dizziness, adverse events (healthy older adults; Part 3, LYT-100 824 mg TID): 0 n (%)
Dyspepsia, adverse events (healthy older adults; Part 3, LYT-100 824 mg TID): 0 n (%)
GI Disorders, adverse events (healthy older adults; Part 3, LYT-100 824 mg TID): 0 n (%)
Headache, adverse events (healthy older adults; Part 3, LYT-100 824 mg TID): 0 n (%)
Nausea, adverse events (healthy older adults; Part 3, LYT-100 824 mg TID): 0 n (%)
Nervous System Disorders, adverse events (healthy older adults; Part 3, LYT-100 824 mg TID): 0 n (%)
Vomiting, adverse events (healthy older adults; Part 3, LYT-100 824 mg TID): 0 n (%)
subjects discontinued due to a TEAE (all Covid-19) (healthy older adults; Part 3, LYT-100 group N=24): 3 (12.5%) n (%)
subjects with at least one TEAE (healthy older adults; Part 3, LYT-100 group N=24): 8 (33.3%) n (%)
subjects with mild TEAEs (healthy older adults; Part 3, LYT-100 group N=24): 7 (29.2%) n (%)
COVID-19 TEAE (healthy older adults; [10]): 4 (16.7) n (%)
Headache TEAE (healthy older adults; [10]): 3 (12.5) n (%)
